Measured values taken from patent publication US20230146233A1, “A CLASS OF POLYCYCLIC COMPOUNDS INHIBITING RNA HELICASE DHX33 AND THE APPLICATION THEREOF” (Shenzhen KeYe Life Technologies, Co., Ltd, priority 2020, published 2023).
pIC50: −log10 of the molar value.

How the values were obtained:
DHX33 protein = molecular target: T1, DHX33 protein (Mus musculus, UniProt Q80VY9); test: Inhibition of the helicase activity of DHX33 protein in vitro; assay type: biochemical; details: recombinant DHX33 protein, compound 1-1000 nM, 37° C., 60 minutes; read-out: IC50 (inhibitory effects of the compounds on the helicase activity of DHX33 protein)
T1 construct: purified full-length DHX33 protein; made in house; host or cells: E. coli BL-21pLysS (DE3)
T1 sequence (Q80VY9 1-698): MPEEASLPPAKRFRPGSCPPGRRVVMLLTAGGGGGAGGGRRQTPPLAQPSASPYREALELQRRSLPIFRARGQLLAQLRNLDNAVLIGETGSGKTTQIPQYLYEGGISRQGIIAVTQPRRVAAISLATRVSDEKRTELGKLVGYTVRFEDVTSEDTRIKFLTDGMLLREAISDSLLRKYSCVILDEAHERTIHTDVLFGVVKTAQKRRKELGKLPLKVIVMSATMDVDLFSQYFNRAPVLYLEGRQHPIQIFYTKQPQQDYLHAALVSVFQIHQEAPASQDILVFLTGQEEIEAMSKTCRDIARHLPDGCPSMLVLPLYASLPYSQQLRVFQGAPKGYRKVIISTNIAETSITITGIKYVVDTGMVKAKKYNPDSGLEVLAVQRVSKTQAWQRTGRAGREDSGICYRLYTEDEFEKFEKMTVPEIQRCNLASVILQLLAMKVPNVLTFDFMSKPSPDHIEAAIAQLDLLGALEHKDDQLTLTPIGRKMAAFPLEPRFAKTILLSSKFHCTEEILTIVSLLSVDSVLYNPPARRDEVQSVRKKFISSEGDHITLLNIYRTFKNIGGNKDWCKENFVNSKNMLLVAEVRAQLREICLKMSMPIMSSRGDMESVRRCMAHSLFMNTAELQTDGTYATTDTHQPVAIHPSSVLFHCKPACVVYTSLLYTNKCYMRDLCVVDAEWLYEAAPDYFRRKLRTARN
Description: Biochemistry. 2019:58 (4):250-8. RNA helicase gene (mouse DHX33 gene) was cloned into a pET32M-3C vector (between BamH I/Not I restriction sites). Afterward, the plasmid was transformed into BL-21pLysS (DE3) E. coli. 0.5 mM isopropyl 1-thio-βp-D-galactopyranoside (IPTG) was added, and the expression of the recombinant protein was induced at 16° C. for 16 hours. Cells were allowed to precipitate and were resuspended in a cell lysis buffer [50 mM Tris-HCl (pH7.2), 150 mM NaCl, 1% Triton X-100, and 50 mM imidazole supplemented with a protease inhibitor]. Thereafter, cells were subjected to ultrasonic treatment and centrifuged at a rotation speed of 13000 rpm for 25 minutes. The supernatant was incubated with the nickel-nitrilotriacetic acid beads equilibrated in Tris buffer, followed by sufficient washing. Thereafter, the purified protein was eluted with a solution of 300 mM imidazole in Tris buffer, and was then subjected to dialysis against an imidazole-free Tris buffer at 4° C. overnight.
The components involved in the reaction for testing the helicase activity were added to a 96-well opaque white plate. The method was outlined as follows. The 96-well plate was coated with neutravidin at a final concentration of 10 μg/mL (100 μl/well) overnight at 4° C. Afterwards, the neutravidin-coated plate was blocked with 100 μL of 0.1% (w/v) BSA (dissolved in normal PBS) at 22° C. for 2 hours. After washing, a DNA duplex (2.5 ng) that was resulted from the annealing of two single-stranded DNA oligonucleotides (the sequence of one single strand was biotin-labeled 5′-[…]-3′; and the sequence of the other single strand was DIG-labeled 5′-[…]-3′) [the annealing reaction was carried out in PBS (pH 7.0) containing 1M NaCl] was added, and the resulting mixture was incubated at 22° C. for 4 hours. After the addition of 90 μL of the reaction mixture, the helicase reaction was initiated [0.25 pig of purified full-length DHX33 protein, dissolved in 25 mM 4-MOPS (pH 7.0), 5 mM ATP 2 mM DTT, 3 mM MnCl2 and 100 μg/mL BSA]. The reaction was conducted at 37° C. for 60 minutes. After being washed, each well was incubated with a blocking solution [10% (w/v) BSA in 0.1 M maleic acid and 0.15 M NaCl (pH 7.5)] for 30 minutes, and was then incubated with 20 μL of antibody solution (anti-DIG-AP, Roche, in blocking buffer) for 30 minutes. After being washed with 100 μL of detection buffer [0.1 M Tris-HCl and 0.1 M NaCl (pH 9.5)], each well was added with 1 μL of chemiluminescent substrate (CSPD-0.25 mM), and the plate was incubated at 17° C. for 5 minutes. Afterwards, the plate was patted dry and incubated at 37° C. for 30 minutes. The remaining DIG-AP marker control in each well was counted for 10 minutes by a luminescence multi-well plate reader (Enspire, PerkinElmer). Higher reading indicated weaker helicase activity.
Positive control and negative controls were set for this acticity assay. Among them, one negative control group, which differed from the experimental group only in that the former was not added with ATP (other conditions were the same as the experimental group), was used for the comparison with the experimental group; another negative control group, which differed from the experimental group only in that the former was not added with DHX33 protein (other conditions were the same as the experimental group), was used for the comparison with the experimental group. The positive control group was set for the comparison with the wild-type DHX33 protein (standard substance).
Biochemistry. 2019:58 (4):250-8.
Compounds having a series of concentration (the concentrations were set at 1 nM, 5 nM, 10 nM, 20 nM, 50 nM, 100 nM, 250 nM, 500 nM, and 1000 nM) were used to conduct the helicase activity assay of […] protein in vitro. The half-maximal inhibitory concentrations of the compounds of the present disclosure on the helicase activity of […] protein were as shown in Table 1.

U251-MG cells = test: Half-maximal cell-inhibitory concentration on U251-MG cells (CCK-8); assay type: cell-based; details: Homo sapiens, U-251, U251-MG cells (DHX33-overexpressing cancer cell strain), 48 hours, read-out: IC50 (half-maximal inhibitory concentrations of compounds on U251-MG cells)
Procedure, shortened: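 […]-overexpressing glioma cells seeded at 1×10^4 cells/well, exposed to compound from 5 nM to 20 μM for 48 hours at 37° C, 5% CO2. Viability read by CCK-8 after 2 hours (OD 450 nm); IC50 from inhibition curves, three repeats.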

For `COc1cc2nc(/C(C#N)=C/c3cc(C)n(-c4sc(-c5ccccn5)cc4C#N)c3C)[nH]c2cn1` [AB24336, (E)-2-(3-(2-cyano-2-(6-methoxy-3H-imidazo[4,5-c]pyridin-2-yl)vinyl)-2,5-dimethyl-1H-pyrrol-1-yl)-5-(pyridin-2-yl)thiophene-3-carbonitrile], the pIC50 (DHX33 protein) was 6.40 to 7.00 and the pIC50 (U251-MG cells) was 5.30 to 6.00.

Work on `COc1cc2nc(/C(C#N)=C/c3cc(C)n(-c4sc(C)nc4C(N)=O)c3C)[nH]c2cn1` [AB24351, (E)-5-(3-(2-cyano-2-(6-methoxy-3H-imidazo[4,5-c]pyridin-2-yl)vinyl)-2,5-dimethyl-1H-pyrrol-1-yl)-2-methylthiazole-4-carboxamide] yielded a pIC50 (DHX33 protein) of 7.00 to 7.70 and a pIC50 (U251-MG cells) of 6.00 to 7.00.

`COc1ccn2c(c1)nc1cc(-c3cc(C)n(-c4sc(C)cc4C#N)c3C)ccc12` [AB24379, 2-(3-(3-methoxybenzo[4,5]imidazo[1,2-a]pyridin-7-yl)-2,5-dimethyl-1H-pyrrol-1-yl)-5-methylthiophene-3-carbonitrile] gave a pIC50 (DHX33 protein) of 7.00 to 7.70 and a pIC50 (U251-MG cells) of 5.30 to 6.00.

`COc1ccc2nc(NC(=O)c3cc(C)n(-c4sc(C)cc4C#N)c3C)[nH]c2c1` [AB24386, 1-(3-cyano-5-methylthiophen-2-yl)-N-(6-methoxy-1H-benzo[d]imidazol-2-yl)-2,5-dimethyl-1H-pyrrole-3-carboxamide] showed a pIC50 (DHX33 protein) greater than 7.70 and a pIC50 (U251-MG cells) greater than 7.00.

With `COc1ccc2nc(NC(=O)c3cc(C)n(-c4sc(C)cc4C(N)=O)c3C)[nH]c2c1` [AB24387, 1-(3-carbamoyl-5-methylthiophen-2-yl)-N-(6-methoxy-1H-benzo[d]imidazol-2-yl)-2,5-dimethyl-1H-pyrrole-3-carboxamide] the pIC50 (DHX33 protein) was 7.00 to 7.70 and the pIC50 (U251-MG cells) was 6.00 to 7.00.

`COc1cc2nc(/C(C#N)=C/c3cc(C)n(Cc4cccs4)c3C)[nH]c2cn1` [AB24399, (E)-3-(2,5-dimethyl-1-(thiophen-2-ylmethyl)-1H-pyrrol-3-yl)-2-(6-methoxy-3H-imidazo[4,5-c]pyridin-2-yl)acrylonitrile] was tested, and the pIC50 (DHX33 protein) was greater than 7.70 and the pIC50 (U251-MG cells) was greater than 7.00.

`COc1ccc2cc(NC(=O)c3cc(C)n(-c4sc(C)nc4C#N)c3C)[nH]c2c1` [AB29501] gave a pIC50 (DHX33 protein) greater than 7.70 and a pIC50 (U251-MG cells) greater than 7.00.

Work on `COc1cc2nc(/C(C#N)=C/c3cc(C)n([C@@H](C)c4ccccc4)c3C)[nH]c2cn1` [AB29506, (S,E)-3-(2,5-dimethyl-1-(1-phenylethyl)-1H-pyrrol-3-yl)-2-(6-methoxy-3H-imidazo[4,5-c]pyridin-2-yl)acrylonitrile] yielded a pIC50 (DHX33 protein) greater than 7.70 and a pIC50 (U251-MG cells) greater than 7.00.

With `COc1cc2nc(/C(C#N)=C/c3cnc(-c4ccccc4)n3C)[nH]c2cn1` [AB29511, (E)-2-(6-methoxy-3H-imidazo[4,5-c]pyridin-2-yl)-3-(1-methyl-2-phenyl-1H-imidazol-5-yl)acrylonitrile] the pIC50 (DHX33 protein) was 6.00 to 6.40 and the pIC50 (U251-MG cells) was 4.70 to 5.30.

In the case of `Cc1oc(-n2c(C)cc(/C=C(\C#N)c3nc4ccccc4[nH]3)c2C)c(C#N)c1C` [Compound as control, reference compound], the pIC50 (DHX33 protein) was 6.00 to 6.40 and the pIC50 (U251-MG cells) was 4.70 to 5.30.
